Measurements reported in patent US8258114B2, “Modulation of glucose-6-phosphatase translocase expression” (Isis Pharmaceuticals, Inc., priority 2004, dated 2012).
Where two headings read alike, the source gives them in different places.

Columns and labels:
[1] = system: catalytic subunit of glucose-6-phosphatase (G6PC) mRNA; experiment: Reduction of catalytic subunit of glucose-6-phosphatase (G6PC) mRNA in liver or kidney of ZDF rats (Table 15); assay type: in vivo, rat; settings: alone or with rosiglitazone 3 mg/kg daily
Description: (§1) Saline-injected animals served as a control treatment group.
At the end of the treatment period, animals were sacrificed and target reduction in liver and kidney were measured by real-time PCR as described in other examples herein. Also measured were reductions in the catalytic subunit of glucose-6-phosphatase (G6PC) using a primer-probe set designed to hybridize to that mRNA. For example, the following primer-probe set was designed to hybridize to rat glucose-6-phosphatase translocase sequences cited in Table 1:
Results for each treatment group are shown in Table 15 as the average percent reduction in glucose-6-phosphatase translocase levels or in G6PC as compared to saline treated control.

[2] = rat, in vivo
[3] = rat, in vivo; remark: listed apart in the source
Description: Male Zucker fa/fa rats, about 17 to 18 weeks of age, purchased from Charles River Laboratories (Wilmington, Mass.), are maintained on a normal rodent diet. Animals are placed into treatment groups of 8 animals each. One treatment group was dosed subcutaneously twice weekly with 12.5 mg/kg of ISIS 366228 (SEQ ID NO: 203). Another treatment group was dosed twice weekly with 25 mg/kg of ISIS 366228. Other treatment groups were dosed with 12.5 mg/kg or 25 mg/kg ISIS 366228 twice weekly in combination with daily 3 mg/kg doses of rosiglitazone (Rosi) administered in powdered food. Another treatment group received the food-administered daily doses of 3 mg/kg of rosiglitazone alone. Saline-injected animals served as a control treatment group.
Tissue weights were also determined at the end of the study.

[4] = rat, in vivo; remark: listed apart in the source
Description: For three weeks, male Sprague-Dawley rats were injected twice-weekly with doses of 12.5 mg/kg, 25 mg/kg, or 50 mg/kg of ISIS 145760, ISIS 359543, or ISIS 366228. Each treatment group was comprised of 4 animals. Animals which received twice weekly injections of saline served as controls.
Body weight was monitored throughout the study period. […] Tissue weights were also measured at the end of the study.

[5] = Plasma glucose, cholesterol and triglycerides in normal Sprague-Dawley rats (Table 14); assay type: in vivo, rat; set-up: plasma GLUCOSE WK 0 / plasma GLUCOSE WK 3: unit not given beside the values
Description: Each treatment group was comprised of 4 animals.
To further assess the physiological effects resulting from inhibition of target mRNA, the rats were evaluated at the beginning (Wk 0) and at the end (Wk 3) of the treatment period for plasma glucose, plasma cholesterol, and plasma triglyceride levels. Triglycerides and cholesterol were measured by routine clinical analyzer instruments (e.g. Olympus Clinical Analyzer, Melville, N.Y.). Glucose levels were measured using a glucose analyzer, for example a YSI glucose analyzer (YSI Scientific, Yellow Springs, Ohio). Results are presented in Table 14 as the average level of plasma glucose, plasma cholesterol (CHOL), or plasma triglycerides (TRIG) measured per treatment group.

aged Zucker fa/fa rats = experiment: Oral glucose tolerance test in ZDF rats (Table 17); assay type: in vivo, rat; settings: alone or with Rosi
Description: as §1
To further evaluate the effects of ISIS 366228 alone or in combination with rosiglitazone, oral glucose tolerance tests were performed during the third week of treatment. To provide a baseline glucose level, fasted blood glucose levels were measured before the challenge. Glucose was administered by oral gavage via an 18 gauge gavage needle at a dose of 1 g/kg. Plasma glucose levels were measured for 15, 30, 60, 90, and 120 minutes post-challenge, using a glucose analyzer (for example, an Ascencia Glucometer Elite XL, Bayer, Tarrytown, N.Y.).

[6] = system: rat glucose-6-phosphatase translocase mRNA; experiment: Reduction of glucose-6-phosphatase translocase mRNA in liver or kidney of ZDF rats (Table 15); assay type: in vivo; settings: for % Inhibition of glucose-6-phosphatase translocase, Kidney / % Inhibition of glucose-6-phosphatase translocase, Liver: alone or with rosiglitazone 3 mg/kg daily
Description: Saline-injected animals served as a control treatment group. At the end of the treatment period, animals were sacrificed and target reduction in liver and kidney were measured by real-time PCR as described in other examples herein. […] For example, the following primer-probe set was designed to hybridize to rat glucose-6-phosphatase translocase sequences cited in Table 1: Forward primer: [NT] (incorporated herein as SEQ ID NO: 339) Reverse primer: [NT] (incorporated herein as SEQ ID NO: 340) PCR probe: […] (incorporated herein as SEQ ID NO: 341), where FAM is the fluorescent dye and TAMRA is the quencher dye.

[7] = Plasma lipids (cholesterol, triglycerides, free fatty acids) in ZDF rats (Table 21); assay type: in vivo, rat
Description: as §1
To further assess the physiological effects resulting from inhibition of target mRNA with antisense oligonucleotide alone or in combination with rosiglitazone, the rats were evaluated throughout the treatment period for plasma free fatty acids, plasma cholesterol, and plasma triglyceride levels. Free fatty acids, triglycerides and cholesterol were measured by routine clinical analyzer instruments (e.g. Olympus Clinical Analyzer, Melville, N.Y.). Glucose levels were measured using a glucose analyzer, for example a YSI glucose analyzer (YSI Scientific, Yellow Springs, Ohio).

[8] = rat, in vivo; remark: listed apart in the source
Description: (§2) Male Zucker fa/fa rats, about 17 to 18 weeks of age, purchased from Charles River Laboratories (Wilmington, Mass.), are maintained on a normal rodent diet. Animals are placed into treatment groups of 8 animals each. […] Another treatment group received the food-administered daily doses of 3 mg/kg of rosiglitazone alone. Saline-injected animals served as a control treatment group.
Also monitored throughout the study was body composition. Baseline body composition was measured by MRI prior to the start of treatment (BL). Body composition was also measured during week 3 (Wk 3) and during week 5 (Wk 5) of treatment.

[9] = rat, in vivo; remark: listed apart in the source
Description: as §2
The liver transaminases, ALT and AST, were measured throughout the study.

[10] = ISIS 366228 12.5 mg/kg twice weekly
[11] = ISIS 366228 25 mg/kg twice weekly

GTGCTTGGCGATGGTACTGA (chemistry not given here) [ISIS 366228]
% Inhibition of G6PC, Kidney [1, 10]: 17%
% Inhibition of G6PC, Liver [1, 10]: 39%
% Inhibition of G6PC, Kidney [1, 11]: 33%
% Inhibition of G6PC, Liver [1, 11]: 0%
body weight (in words) [2]: did not cause increased body weight
renal enlargement (in words) [3]: renal enlargement associated with human glycogen storage disease type 1B is not observed
Fat pad weight ([3]; 12.5 mg/kg): 7 grams
Fat pad weight ([3]; 25 mg/kg): 6 grams
Fat weight ([4]; 12.5 mg/kg): 1.6 grams
Fat weight ([4]; 25 mg/kg): 1.5 grams
Fat weight ([4]; 50 mg/kg): 1.1 grams
Kidney weight ([4]; 50 mg/kg): 3 grams
Liver weight ([4]; 50 mg/kg): 15 grams
Spleen weight ([4]; 50 mg/kg): 1.1 grams
plasma cholesterol (CHOL) WK 3 ([5]; 12.5 mg/kg twice weekly, saline 58): 49
plasma triglycerides (TRIG) WK 0 ([5]; 12.5 mg/kg twice weekly, saline 69): 54
plasma cholesterol (CHOL) WK 0 ([5]; 12.5 mg/kg twice weekly, saline 74): 70
plasma GLUCOSE WK 0 ([5]; 12.5 mg/kg twice weekly, saline 135): 147
plasma GLUCOSE WK 3 ([5]; 12.5 mg/kg twice weekly, saline 139): 146
plasma triglycerides (TRIG) WK 3 ([5]; 12.5 mg/kg twice weekly, saline 140): 84
plasma GLUCOSE WK 0 ([5]; 25 mg/kg twice weekly): 148
plasma GLUCOSE WK 3 ([5]; 25 mg/kg twice weekly): 149
plasma cholesterol (CHOL) WK 0 ([5]; 25 mg/kg twice weekly): 93
plasma cholesterol (CHOL) WK 3 ([5]; 25 mg/kg twice weekly): 70
plasma triglycerides (TRIG) WK 0 ([5]; 25 mg/kg twice weekly): 56
plasma triglycerides (TRIG) WK 3 ([5]; 25 mg/kg twice weekly): 76
plasma GLUCOSE WK 0 ([5]; 50 mg/kg twice weekly): 137
plasma GLUCOSE WK 3 ([5]; 50 mg/kg twice weekly): 139
plasma cholesterol (CHOL) WK 0 ([5]; 50 mg/kg twice weekly): 76
plasma cholesterol (CHOL) WK 3 ([5]; 50 mg/kg twice weekly): 54
plasma triglycerides (TRIG) WK 0 ([5]; 50 mg/kg twice weekly): 65
plasma triglycerides (TRIG) WK 3 ([5]; 50 mg/kg twice weekly): 64
plasma triglycerides (in words) ([5]; 12.5 to 50 mg/kg, three weeks): prevented the increases in triglycerides observed in saline-treated animals
plasma glucose, OGTT (aged Zucker fa/fa rats; week 3, ISIS 366228 12.5 mg/kg, 0 min (fasted)): 317 mg/dL
plasma glucose, OGTT (aged Zucker fa/fa rats; week 3, ISIS 366228 12.5 mg/kg, 15 min): 418 mg/dL
plasma glucose, OGTT (aged Zucker fa/fa rats; week 3, ISIS 366228 12.5 mg/kg, 30 min): 553 mg/dL
plasma glucose, OGTT (aged Zucker fa/fa rats; week 3, ISIS 366228 12.5 mg/kg, 60 min): 485 mg/dL
plasma glucose, OGTT (aged Zucker fa/fa rats; week 3, ISIS 366228 12.5 mg/kg, 90 min): 441 mg/dL
plasma glucose, OGTT (aged Zucker fa/fa rats; week 3, ISIS 366228 12.5 mg/kg, 120 min): 444 mg/dL
plasma glucose, OGTT (aged Zucker fa/fa rats; week 3, ISIS 366228 25 mg/kg, 0 min (fasted)): 303 mg/dL
plasma glucose, OGTT (aged Zucker fa/fa rats; week 3, ISIS 366228 25 mg/kg, 15 min): 453 mg/dL
plasma glucose, OGTT (aged Zucker fa/fa rats; week 3, ISIS 366228 25 mg/kg, 30 min): 540 mg/dL
plasma glucose, OGTT (aged Zucker fa/fa rats; week 3, ISIS 366228 25 mg/kg, 60 min): 461 mg/dL
plasma glucose, OGTT (aged Zucker fa/fa rats; week 3, ISIS 366228 25 mg/kg, 90 min): 427 mg/dL
plasma glucose, OGTT (aged Zucker fa/fa rats; week 3, ISIS 366228 25 mg/kg, 120 min): 408 mg/dL
glucose-6-phosphatase translocase levels in liver and kidney (in words) [6]: reduced glucose-6-phosphatase translocase levels in liver and kidney at both doses
% Inhibition of glucose-6-phosphatase translocase, Kidney [6, 10]: 35%
% Inhibition of glucose-6-phosphatase translocase, Liver [6, 10]: 40%
% Inhibition of glucose-6-phosphatase translocase, Kidney [6, 11]: 46%
% Inhibition of glucose-6-phosphatase translocase, Liver [6, 11]: 80%
plasma cholesterol (CHOL) ([7]; Wk 0, ISIS 366228 12.5 mg/kg): 207 mg/dL
plasma triglycerides (TRIG) ([7]; Wk 0, ISIS 366228 12.5 mg/kg): 460 mg/dL
plasma cholesterol (CHOL) ([7]; Wk 0, ISIS 366228 25 mg/kg): 210 mg/dL
plasma triglycerides (TRIG) ([7]; Wk 0, ISIS 366228 25 mg/kg): 470 mg/dL
plasma cholesterol (CHOL) ([7]; Wk 1, ISIS 366228 12.5 mg/kg): 201 mg/dL
plasma triglycerides (TRIG) ([7]; Wk 1, ISIS 366228 12.5 mg/kg): 379 mg/dL
plasma cholesterol (CHOL) ([7]; Wk 1, ISIS 366228 25 mg/kg): 196 mg/dL
plasma triglycerides (TRIG) ([7]; Wk 1, ISIS 366228 25 mg/kg): 307 mg/dL
plasma cholesterol (CHOL) ([7]; Wk 3, ISIS 366228 12.5 mg/kg): 196 mg/dL
plasma triglycerides (TRIG) ([7]; Wk 3, ISIS 366228 12.5 mg/kg): 416 mg/dL
plasma cholesterol (CHOL) ([7]; Wk 3, ISIS 366228 25 mg/kg): 206 mg/dL
plasma triglycerides (TRIG) ([7]; Wk 3, ISIS 366228 25 mg/kg): 354 mg/dL
plasma cholesterol (CHOL) ([7]; Wk 5, ISIS 366228 12.5 mg/kg): 176 mg/dL
plasma triglycerides (TRIG) ([7]; Wk 5, ISIS 366228 12.5 mg/kg): 478 mg/dL
plasma cholesterol (CHOL) ([7]; Wk 5, ISIS 366228 25 mg/kg): 183 mg/dL
plasma triglycerides (TRIG) ([7]; Wk 5, ISIS 366228 25 mg/kg): 472 mg/dL
plasma cholesterol (in words) ([7]; compared with saline or rosiglitazone alone): prevented increases in plasma cholesterol
body fat percentage (in words) [8]: did not cause marked increases in body fat percentage
liver transaminases ALT and AST (in words) [9]: reductions in levels of these indicators of liver function
